Measurements from a melting point compilation (Tetko et al.; mined from patent text by program, amines drawn as free bases though some values may be those of a salt).

Structure (SMILES) | melting point
CCc1cccc(NC(=O)c2cnn(C)c2N)c1 | 168 to 170 °C
O=[N+]([O-])c1ccccc1NCC12CC3CC(CC(C3)C1)C2 | 106 to 109 °C
CCCCCCCNC(=O)N(C)c1ccc(C)c(-c2ccc(CCC(=O)O)cc2)c1 | 104 °C
CCN1CCCC1CNC(=O)c1cc(N(C)S(=O)(=O)CC)ccc1OC (stereo unspecified) | 85 to 87 °C
CCCCOC(=O)NCCC(=O)O | 50.5 °C
CCCCC(=O)Nc1cscc1N | 110 °C
Clc1cc(Cl)c2c(c1)COCO2 | 111 to 112 °C
Cc1cn2c(nc1=O)CCC2 | 82 °C
COCCOCOc1c(C(C)(C)C)cc(-c2ccc(C#N)c(C#N)c2)cc1C(C)(C)C | 130 to 131 °C
Cc1cc(F)cc([N+](=O)[O-])c1C#N | 61 to 63 °C
CCOP(=O)(OCC)C(O)=C1CCc2cc(CC3CCCC3)c(Cl)cc21 | 126 °C
Cc1cc(CCCCCOc2c(C)cc(-c3cn(C)nn3)cc2C)on1 | 117 to 118 °C
CCc1c(CC(=O)O)ccc(OC)c1OC | 89 to 90 °C
Cc1ncc(CO)c(C2NC(C(=O)O)C(C)(C)S2)c1O (stereo unspecified) | 201 to 202 °C
COc1ccc2[nH]cc(CC(C)(C)[N+](=O)[O-])c2c1 | 83 to 85 °C
Nc1cccc2c1OCC2 | 70 to 72 °C
CCOC(=O)c1cn(C2CC2)c2c(F)c(N3CC[C@H](NC(=O)OC(C)(C)C)C3)c(F)cc2c1=O | 148 to 151 °C
Cc1csc2ccc3[nH]c4c(c3c12)CN(C(C)C)CC4 | 199 to 203 °C

Next, values leading:

melting point | Structure (SMILES)
152 to 154 °C | CC(O)(c1ccccc1)C1CCN1C(c1ccccc1)c1ccccc1 (stereo unspecified)
166 to 168 °C | Cc1c(C)c(N2C(=O)c3ccccc3C2=O)c(C)c2c1OC(C)(C)C2
61 to 63 °C | CC[C@@H](c1ccccc1)N(Cc1ccc(S(C)(=O)=O)cc1)S(=O)(=O)c1ccc(Cl)cc1
> 250 °C | COC(=O)c1cccc2[nH]c(=O)c(-c3csc(-c4ccncc4)n3)cc12
163 to 167 °C | COC(=O)c1cccc2nc(N3CCOCC3)n(Cc3ccc(-c4ccccc4)c(-c4nnn[nH]4)c3)c12
> 300 °C | CCCCNc1nc(=O)c2c(C)nn3c2n1CC(C)=C3c1ccccc1
169 to 172 °C | CCc1ccccc1Cn1cc(-c2cn(C3CC(O)C(CO)O3)c(=O)[nH]c2=O)nn1 (stereo unspecified)
220 to 222 °C | O=C(Nc1ccccc1)c1ccc(CSc2ccc(O)cc2)cc1
170 to 171 °C | CCCCc1nnc(-c2ccco2)n1Cc1ccc(NC(=O)c2ccccc2C(=O)O)cc1
> 300 °C | O=c1ccc2c(-c3ccncc3)nccc2[nH]1
112 °C | CN(C(=O)C1CCn2cccc21)c1ccccc1 (stereo unspecified)
137 to 138 °C | Cc1ccc(Cc2cnc(CCCOc3cccc(CN4CCCCC4)c3)[nH]c2=O)cn1
> 350 °C | Oc1cccc(-c2nc(Nc3ccc(Cl)cc3)c3ccccc3n2)n1
115 to 117 °C | O=C1C(Cl)=C(c2ccccc2)C(=O)N1Nc1ccc(F)cc1
229 to 231 °C | NC(=O)c1nnn(Cc2ccc(C(=O)c3ccc(Cl)cc3)cc2)c1N
174 to 175 °C | COc1nc2ccccc2cc1NC(=O)N1CCN(c2cccc(C)c2C)CC1
360 °C | Cn1c(=O)c2c3oc4ccccc4oc3c3[nH]c4cc(O)ccc4c3c2c1=O
70.8 to 72.1 °C | COc1ccc2ccccc2c1-c1c(C)c2c(c(C)c1P(=O)(c1ccccc1)c1ccccc1)CCC2
254 to 259 °C | CC(=O)c1c[nH]c(-c2ccc(O)cc2)n1
130 °C | CCOc1ccc(F)cc1C(=O)c1sc2ncccc2c1N
200 to 201 °C | CSc1nnc(-c2ccc3ncn(-c4ccc(OC(F)(F)F)cc4)c3c2)o1
> 260 °C | COC(=O)c1ccc(C=CC(=O)N2CCc3c([nH]c4ccccc34)C2c2ccc3c(c2)CCO3)nc1 (stereo unspecified)
189 °C | FC(F)(F)c1ccc(Cl)cc1CN1CCNc2ncc(-c3ccnc(N4CCNCC4)c3)cc21
